Experimental data from ChEMBL document CHEMBL1201862, “PubChem BioAssay data set” (2004).
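Compound exposure: 48 hours, 5 concentrations, 96-well plates. The concentration for 50% growth inhibition is given as GI50.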 Calls of active or inactive are those of the source. No stated cut-off is given here; in the data, active = GI50 up to about 1.1 µM and inactive = higher.

Assays:
Test in all cases: NCI anticancer screen, dose series, 48 h
A549 = test system: A549
ACHN = test system: ACHN
CCRF-CEM = test system: CCRF-CEM
HOP-62 = test system: HOP-62
HOP-92 = test system: HOP-92
MCF7 = test system: MCF7
NCI-H522 = test system: NCI-H522
NCI/ADR-RES = test system: NCI/ADR-RES
OVCAR-4 = test system: OVCAR-4
OVCAR-5 = test system: OVCAR-5
OVCAR-8 = test system: OVCAR-8
SF-295 = test system: SF-295
SK-MEL-5 = test system: SK-MEL-5
SNB-75 = test system: SNB-75
T47D = test system: T47D
UO-31 = test system: UO-31
HCC 2998 = test system: HCC 2998
SR = test system: SR
TK-10 = test system: TK-10

Measured: GI50

C[C@]1(S(=O)(=O)c2ccccc2)C[C@H]2N(Cc3ccccc3)[C@@H]1CCC21OCCO1
inactive: A549 86.1 µM | ACHN > 100 µM | CCRF-CEM 49.1 µM | HOP-62 > 100 µM | HOP-92 88.1 µM | MCF7 78.9 µM | NCI-H522 72.6 µM | NCI/ADR-RES 46.9 µM | OVCAR-4 36.3 µM | OVCAR-5 > 100 µM | OVCAR-8 > 100 µM | SF-295 90.4 µM | SK-MEL-5 75.2 µM | SNB-75 > 100 µM | T47D 41.6 µM | UO-31 > 100 µM

O=c1[nH]c2nccn2c2c1SCCN2
inactive: A549 > 100 µM | ACHN > 100 µM | CCRF-CEM > 100 µM | HCC 2998 > 100 µM | HOP-62 > 100 µM | MCF7 > 100 µM | NCI-H522 > 100 µM | NCI/ADR-RES > 100 µM | OVCAR-4 > 100 µM | OVCAR-5 > 100 µM | OVCAR-8 > 100 µM | SF-295 > 100 µM | SK-MEL-5 > 100 µM | SNB-75 > 100 µM | SR > 100 µM | T47D > 100 µM | TK-10 > 100 µM

CC1(C)CC2(C)OC(=N)C1(C#N)C2(C#N)C#N (configuration not stated)
inactive: A549 23.2 µM | ACHN 7.64 µM | HCC 2998 12.1 µM | HOP-92 1.57 µM | MCF7 8.55 µM | NCI-H522 2.44 µM | NCI/ADR-RES 13 µM | OVCAR-5 14.3 µM | OVCAR-8 18.2 µM | SF-295 16.3 µM | SK-MEL-5 8.83 µM | T47D 10.7 µM | TK-10 10.8 µM | UO-31 4.26 µM

O=C1C(Cl)=C(Cl)C(Cl)(Cl)C(Cl)C1(Cl)Cl (configuration not stated)
inactive: A549 20.9 µM | ACHN 29.8 µM | CCRF-CEM 27.3 µM | HCC 2998 17.3 µM | HOP-62 23.4 µM | HOP-92 16.9 µM | MCF7 22.7 µM | NCI-H522 13.7 µM | NCI/ADR-RES 25.3 µM | OVCAR-5 23.2 µM | OVCAR-8 32.2 µM | SF-295 21.2 µM | SK-MEL-5 13.7 µM | SNB-75 21.5 µM | T47D 21 µM | TK-10 19.5 µM | UO-31 15.8 µM

CC1(C)CC(O)C(C)(C)[C@@H](O)C1 (some centres not stated)
inactive: A549 > 100 µM | ACHN > 100 µM | CCRF-CEM > 100 µM | HCC 2998 > 100 µM | HOP-62 > 100 µM | MCF7 > 100 µM | NCI-H522 > 100 µM | NCI/ADR-RES > 100 µM | OVCAR-4 > 100 µM | OVCAR-5 > 100 µM | OVCAR-8 > 100 µM | SF-295 > 100 µM | SK-MEL-5 > 100 µM | SNB-75 > 100 µM | T47D > 100 µM | TK-10 > 100 µM | UO-31 > 100 µM

CNc1ccc([S+]([O-])Nc2ccccc2)cc1 (configuration not stated)
inactive: A549 45.6 µM | ACHN 84.7 µM | CCRF-CEM > 100 µM | HCC 2998 23.1 µM | HOP-62 58.3 µM | MCF7 56 µM | NCI-H522 19 µM | NCI/ADR-RES 65.6 µM | OVCAR-4 94.2 µM | OVCAR-5 > 100 µM | OVCAR-8 56.2 µM | SF-295 41.5 µM | SK-MEL-5 25.8 µM | SR 38.2 µM | T47D 19.5 µM | TK-10 > 100 µM | UO-31 23.9 µM

Nc1ccc(OCCCc2c(-c3ccccc3)[nH]c(N)nc2=O)cc1
inactive: ACHN 33.9 µM | CCRF-CEM 43 µM | HCC 2998 22.8 µM | HOP-62 20.6 µM | MCF7 40.3 µM | NCI-H522 18.4 µM | NCI/ADR-RES > 100 µM | OVCAR-4 31.6 µM | OVCAR-5 > 100 µM | OVCAR-8 44.4 µM | SF-295 34.8 µM | SK-MEL-5 41.1 µM | SNB-75 66.4 µM | SR > 100 µM | T47D 12.2 µM | UO-31 26 µM

CC1OC(O[C@H]2C3C=CO[C@@H](OC4OC(CO)C(O)C(O)C4O)C3[C@@]3(COC(=O)/C=C/c4ccccc4)O[C@@H]23)C(O)C(O)C1O (some centres not stated)
inactive: A549 > 100 µM | ACHN > 100 µM | CCRF-CEM > 100 µM | HCC 2998 > 100 µM | HOP-62 > 100 µM | HOP-92 > 100 µM | MCF7 > 100 µM | NCI-H522 > 100 µM | NCI/ADR-RES > 100 µM | OVCAR-4 > 100 µM | OVCAR-5 > 100 µM | OVCAR-8 > 100 µM | SF-295 > 100 µM | SK-MEL-5 > 100 µM | SNB-75 > 100 µM | T47D > 100 µM | TK-10 > 100 µM | UO-31 > 100 µM
